# Data reported in publication PMC5575475 (Angewandte Chemie (International Ed. in English), 2017).
# Like-named read-outs stand apart in the source and are kept apart here.
# T1: 14-3-3β (Homo sapiens, UniProt P31946)
# T1 sequence (P31946 1-246): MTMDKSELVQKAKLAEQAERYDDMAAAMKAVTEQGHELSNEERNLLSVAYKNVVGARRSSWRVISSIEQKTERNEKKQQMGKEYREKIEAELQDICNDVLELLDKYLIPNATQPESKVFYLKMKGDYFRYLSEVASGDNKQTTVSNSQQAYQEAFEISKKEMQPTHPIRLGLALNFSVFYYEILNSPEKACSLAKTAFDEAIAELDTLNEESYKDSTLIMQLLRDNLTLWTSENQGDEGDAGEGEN
# B1: truncated 14‐3‐3βΔC variant (domain or fragment)
# chain: QGSMTMDKSELVQKAKLAEQAERYDDMAAAMKAVTEQGHELSNEERNLLSVAYKNVVGARRSSWRVISSIEQKTERNEKKQQMGKEYREKIEAELQDICNDVLELLDKYLIPNATQPESKVFYLKMKGDYFRYLSEVASGDNKQTTVSNSQQAYQEAFEISKKEMQPTHPIRLGLALNFSVFYYEILNSPEKACSLAKTAFDEAIAELDTLNEESYKDSTLIMQLLRDNLTLWTSENQGDEGDAGEGEN
# Legend:
# 14-3-3β [1] = target: T1, 14-3-3β; format: binding
# 14-3-3β [2] = target: T1, 14-3-3β; format: binding; conditions: at very low and very high FGG-ERα peptide concentrations
# [3] = target: 14‐3‐3β adapter protein (dimer) (UniProt P31946); assay: fluorescence polarisation
# [4] = target: 14‐3‐3β adapter protein (dimer) (UniProt P31946); assay: fluorescence polarisation; remark: listed apart in the source
# crystal structure = target: the molecule itself; assay: crystal structure
# [5] = FGG-ERα titration at constant Q8 concentrations
molecule,measurement,setting,value
"O=C1N2CN3C(=O)N4CN5C(=O)N6CN7C(=O)N8CN9C(=O)N%10CN%11C(=O)N%12CN%13C(=O)N%14CN%15C(=O)N%16CN1C1C2N2CN%17C(=O)N(CN%18C(=O)N(CN%19C(=O)N(CN%20C(=O)N(CN%21C(=O)N(CN%22C(=O)N(CN%23C(=O)N(CN1C2=O)C%16C%15%23)C%14C%13%22)C%12C%11%21)C%10C9%20)C8C7%19)C6C5%18)C4C3%17 (stereo not shown) [Q8, Cucurbit[8]uril]",Q8 concentration at which the enhancement effect appears to saturate,14-3-3β [1]; [5],approximately 10 μM
same,combinatorial inhibition at high Q8 concentrations,14-3-3β [1]; [5],no evidence of combinatorial inhibition
same,effect of Q8,14-3-3β [2],negligible
Cucurbit[7]uril [Q7],enhancement of apparent affinity of FGG-ERα for 14-3-3,14-3-3β [1]; Q7 instead of Q8 (Figure 2E),did not enhance the apparent affinity
FGG‐ERα phosphopeptide (15‐mer: N‐terminal FGG motif fused to the wild‐type 14‐3‐3‐binding epitope of estrogen receptor α),IC50,[3],70 nM
same,IC50,[4],1000 nM
B1,stoichiometry N,crystal structure,2
